Measurements: patent publication US9670261B2 (Sanofi, priority 2012, dated 2017)
Converted amounts (≈) assume the structure as drawn. *1 amine or outer side, *2 acyl side, *3 side chain or, on linkers, in order; H or OH if unused. Where a SMILES comes first, the peptide text is derived from it. Side-chain parts run from the residue outwards. [ ]: non-standard residue; d: D form. The star is where a group is joined. γGlu = O=C(O)[C@H](CCC(=O)[*:2])N[*:1]; Stearoyl = CCCCCCCCCCCCCCCCCC(=O)*; Palmitoyl = CCCCCCCCCCCCCCCC(=O)*; Aib = CC(C)(N)C(=O)O; βAla = NCCC(=O)O

Experiments:
[1] = Chemical stability in solution, 7 days at 25° C. (% remaining peptide); conditions: % remaining peptide after 7 days at 25° C.
Description: After that time course, the sample was centrifuged for 20 min at 4000 rpm and the supernatant was analysed with HPLC-UV. For determination of the amount of the remaining peptide, the peak areas of the target compound at t0 and t7 were compared, resulting in “% remaining peptide”, following the equation % remaining peptide=[(peak area peptide t7)×100]/peak area peptide t0.
The chemical stability is expressed as “% remaining peptide”.

[2] = Pharmacokinetic testing in mice, s.c.; conditions: mouse, plasma, sc, 1 mg/kg
Description: Mice were dosed 1 mg/kg subcutaneously (s.c.). The mice were sacrified and blood samples were collected after 0.25, 0.5, 1, 2, 4, 8, 16 and 24 hours post application. Plasma samples were analyzed after protein precipitation via liquid chromatography mass spectrometry (LC/MS). PK parameters and half-life were calculated using WinonLin Version 5.2.1 (non-compartment model).

[3] = Solubility testing in buffer (HPLC-UV); conditions: buffer
human GLP-1 receptor = target: T1, human GLP-1 receptor (Homo sapiens, UniProt P43220); assay: cAMP response (HTRF) of HEK-293 cells stably expressing human GLP-1 receptor; format: cell-based; conditions: Table 7; cAMP formation; read-out: EC50 hGLP-1 R
T1 construct: expressed in transfected cells
T1 sequence (P43220 24-463): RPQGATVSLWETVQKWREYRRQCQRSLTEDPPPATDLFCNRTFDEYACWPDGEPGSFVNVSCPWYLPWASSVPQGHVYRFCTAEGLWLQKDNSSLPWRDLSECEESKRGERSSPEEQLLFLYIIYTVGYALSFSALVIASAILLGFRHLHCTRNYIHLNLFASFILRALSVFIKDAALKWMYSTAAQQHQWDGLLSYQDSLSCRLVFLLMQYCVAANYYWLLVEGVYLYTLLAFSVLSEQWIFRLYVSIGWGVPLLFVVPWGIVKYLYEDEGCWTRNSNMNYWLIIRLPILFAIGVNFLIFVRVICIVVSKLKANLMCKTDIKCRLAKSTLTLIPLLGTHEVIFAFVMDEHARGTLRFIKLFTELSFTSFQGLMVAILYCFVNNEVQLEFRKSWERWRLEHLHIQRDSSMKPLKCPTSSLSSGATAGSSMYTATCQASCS
Description: cAMP content of cells was determined using a kit from Cisbio Corp. (cat. no. 62AM4PEC) based on HTRF (Homogenous Time Resolved Fluorescence). For preparation, cells were split into T175 culture flasks and grown overnight to near confluency in medium (DMEM/10% FBS). Medium was then removed and cells washed with PBS lacking calcium and magnesium, followed by proteinase treatment with accutase (Sigma-Aldrich cat. no. A6964). Detached cells were washed and resuspended in assay buffer (1×HBSS; 20 mM HEPES, 0.1% BSA, 2 mM IBMX) and cellular density determined. They were then diluted to 400000 cells/ml and 25 μl-aliquots dispensed into the wells of 96-well plates. For measurement, 25 μl of test compound in assay buffer was added to the wells, followed by incubation for 30 minutes at room temperature.

CCCCCCCCCCCCCCCCCC(=O)N[C@@H](CCC(=O)NCCCC[C@H](NC(=O)[C@H](CCC(N)=O)NC(=O)[C@@H](NC(=O)[C@H](CO)NC(=O)[C@H](CC(C)C)NC(=O)[C@H](CC(=O)O)NC(=O)[C@H](CO)NC(=O)[C@@H](NC(=O)[C@H](Cc1ccccc1)NC(=O)[C@@H](NC(=O)CNC(=O)[C@H](CCC(=O)O)NC(=O)C(C)(C)NC(=O)[C@@H](N)Cc1ccc(O)cc1)[C@@H](C)O)[C@@H](C)O)[C@@H](C)CC)C(=O)N[C@@H](CCC(=O)O)C(=O)N[C@@H](CCCCN)C(=O)N[C@@H](CCCNC(=N)N)C(=O)N[C@@H](C)C(=O)N[C@@H](C)C(=O)NC(C)(C)C(=O)N[C@@H](CCC(=O)O)C(=O)N[C@@H](Cc1ccccc1)C(=O)N[C@H](C(=O)N[C@@H](CCC(=O)O)C(=O)N[C@@H](Cc1c[nH]c2ccccc12)C(=O)N[C@@H](CC(C)C)C(=O)N[C@@H](CCCCN)C(=O)N[C@@H](CC(N)=O)C(=O)N[C@H](C(=O)NCC(=O)N1CCC[C@H]1C(=O)N[C@@H](CO)C(=O)N[C@@H](CO)C(=O)NCC(=O)N[C@@H](C)C(=O)N1CCC[C@H]1C(=O)N1CCC[C@H]1C(=O)N1CCC[C@H]1C(=O)N[C@@H](CO)C(N)=O)[C@@H](C)O)[C@@H](C)CC)C(=O)O [SEQ ID NO: 15, Y-Aib-E-G-T-F-T-S-D-L-S-I-Q-K(γE-x70)-E-K-R-A-A-Aib-E-F-I-E-W-L-K-N-T-G-P-S-S-G-A-P-P-P-S-NH2] (H-Y[Aib]EGTFTSDLSIQK([γGlu-Stearoyl])EKRAA[Aib]EFIEWLKNTGPSSGAPPPS-NH2)
Stability (pH 4.5) [1]: 91.0% | Stability (pH 7.4) [1]: 90.0% | Cmax [2]: 5000 ng/mL | half-life [2]: 3.5 h | solubility at 2 h ([3]; pH 4.5): 997 µg/mL (≈ 216 µM) | solubility at 2 h ([3]; pH 7.4): > 1000 µg/mL

CCCCCCCCCCCCCCCC(=O)N[C@@H](CCC(=O)NCCCC[C@H](NC(=O)[C@H](CCC(N)=O)NC(=O)[C@@H](NC(=O)[C@H](CO)NC(=O)[C@H](CC(C)C)NC(=O)[C@H](CC(=O)O)NC(=O)[C@H](CO)NC(=O)[C@@H](NC(=O)[C@H](Cc1ccccc1)NC(=O)[C@@H](NC(=O)CNC(=O)[C@H](CCC(=O)O)NC(=O)C(C)(C)NC(=O)[C@@H](N)Cc1ccc(O)cc1)[C@@H](C)O)[C@@H](C)O)[C@@H](C)CC)C(=O)N[C@@H](CCC(=O)O)C(=O)N[C@@H](CO)C(=O)N[C@@H](CCCNC(=N)N)C(=O)N[C@@H](C)C(=O)N[C@@H](C)C(=O)NC(C)(C)C(=O)N[C@@H](CCC(=O)O)C(=O)N[C@@H](Cc1ccccc1)C(=O)N[C@H](C(=O)N[C@@H](CCC(=O)O)C(=O)N[C@@H](Cc1c[nH]c2ccccc12)C(=O)N[C@@H](CC(C)C)C(=O)N[C@@H](CCCCN)C(=O)N[C@@H](C)C(=O)NCC(=O)NCC(=O)N1CCC[C@H]1C(=O)N[C@@H](CO)C(=O)N[C@@H](CO)C(=O)NCC(=O)N[C@@H](C)C(=O)N1CCC[C@H]1C(=O)N1CCC[C@H]1C(=O)N1CCC[C@H]1C(=O)N[C@@H](CO)C(N)=O)[C@@H](C)CC)C(=O)O [SEQ ID NO: 35, Y-Aib-E-G-T-F-T-S-D-L-S-I-Q-K(γE-x53)-E-S-R-A-A-Aib-E-F-I-E-W-L-K-A-G-G-P-S-S-G-A-P-P-P-S-NH2] (H-Y[Aib]EGTFTSDLSIQK([γGlu-Palmitoyl])ESRAA[Aib]EFIEWLKAGGPSSGAPPPS-NH2)
Stability (pH 4.5) [1]: 100.0% | Stability (pH 7.4) [1]: 98.0% | EC50 (human GLP-1 receptor): 6.9 pM | solubility at 2 h ([3]; pH 4.5): 424 µg/mL (≈ 95.4 µM) | solubility at 2 h ([3]; pH 7.4): > 1000 µg/mL

CCCCCCCCCCCCCCCCCC(=O)NCCC(=O)NCCC(=O)NCCCC[C@H](NC(=O)[C@H](CCC(N)=O)NC(=O)[C@@H](NC(=O)[C@H](CO)NC(=O)[C@H](CC(C)C)NC(=O)[C@H](CC(=O)O)NC(=O)[C@H](CO)NC(=O)[C@@H](NC(=O)[C@H](Cc1ccccc1)NC(=O)[C@@H](NC(=O)CNC(=O)[C@H](CCC(=O)O)NC(=O)C(C)(C)NC(=O)[C@@H](N)Cc1ccc(O)cc1)[C@@H](C)O)[C@@H](C)O)[C@@H](C)CC)C(=O)N[C@@H](CCC(=O)O)C(=O)N[C@@H](CCCCN)C(=O)N[C@@H](CCCNC(=N)N)C(=O)N[C@@H](C)C(=O)N[C@@H](C)C(=O)NC(C)(C)C(=O)N[C@@H](CCC(=O)O)C(=O)N[C@@H](Cc1ccccc1)C(=O)N[C@H](C(=O)N[C@@H](CCC(=O)O)C(=O)N[C@@H](Cc1c[nH]c2ccccc12)C(=O)N[C@@H](CC(C)C)C(=O)N[C@@H](CCCCN)C(=O)N[C@@H](CC(N)=O)C(=O)N[C@H](C(=O)NCC(=O)N1CCC[C@H]1C(=O)N[C@@H](CO)C(=O)N[C@@H](CO)C(=O)NCC(=O)N[C@@H](C)C(=O)N1CCC[C@H]1C(=O)N1CCC[C@H]1C(=O)N1CCC[C@H]1C(=O)N[C@@H](CO)C(N)=O)[C@@H](C)O)[C@@H](C)CC [SEQ ID NO: 18, Y-Aib-E-G-T-F-T-S-D-L-S-I-Q-K(βA-βA-x70)-E-K-R-A-A-Aib-E-F-I-E-W-L-K-N-T-G-P-S-S-G-A-P-P-P-S-NH2] (H-Y[Aib]EGTFTSDLSIQK([βAla-βAla-Stearoyl])EKRAA[Aib]EFIEWLKNTGPSSGAPPPS-NH2)
Cmax [2]: 5750 ng/mL | half-life [2]: 2.1 h | EC50 (human GLP-1 receptor): 7.6 pM

CCCCCCCCCCCCCCCC(=O)N[C@@H](CCC(=O)NCCCC[C@H](NC(=O)[C@H](CCC(N)=O)NC(=O)[C@@H](NC(=O)[C@H](CO)NC(=O)[C@H](CC(C)C)NC(=O)[C@H](CC(=O)O)NC(=O)[C@H](CO)NC(=O)[C@@H](NC(=O)[C@H](Cc1ccccc1)NC(=O)[C@@H](NC(=O)CNC(=O)[C@H](CCC(=O)O)NC(=O)C(C)(C)NC(=O)[C@@H](N)Cc1ccc(O)cc1)[C@@H](C)O)[C@@H](C)O)[C@@H](C)CC)C(=O)N[C@@H](CCC(=O)O)C(=O)N[C@@H](CCCCN)C(=O)N[C@@H](CCCNC(=N)N)C(=O)N[C@@H](C)C(=O)N[C@@H](C)C(=O)N[C@@H](CCC(N)=O)C(=O)N[C@@H](CCC(=O)O)C(=O)N[C@@H](Cc1ccccc1)C(=O)N[C@H](C(=O)N[C@@H](CCC(=O)O)C(=O)N[C@@H](Cc1c[nH]c2ccccc12)C(=O)N[C@@H](CC(C)C)C(=O)N[C@@H](CCCCN)C(=O)N[C@@H](CC(N)=O)C(=O)N[C@H](C(=O)NCC(=O)N1CCC[C@H]1C(=O)N[C@@H](CO)C(=O)N[C@@H](CO)C(=O)NCC(=O)N[C@@H](C)C(=O)N1CCC[C@H]1C(=O)N1CCC[C@H]1C(=O)N1CCC[C@H]1C(=O)N[C@@H](CO)C(N)=O)[C@@H](C)O)[C@@H](C)CC)C(=O)O [SEQ ID NO: 26, Y-Aib-E-G-T-F-T-S-D-L-S-I-Q-K(γE-x53)-EKRAAQEFIEWLKNTGPSSGAPPPS-NH2] (H-Y[Aib]EGTFTSDLSIQK([γGlu-Palmitoyl])EKRAAQEFIEWLKNTGPSSGAPPPS-NH2)
Cmax [2]: 3120 ng/mL | half-life [2]: 3.7 h | EC50 (human GLP-1 receptor): 4.9 pM

CCCCCCCCCCCCCCCC(=O)N[C@@H](CCC(=O)NCCCC[C@H](NC(=O)[C@H](CCC(N)=O)NC(=O)[C@@H](NC(=O)[C@H](CO)NC(=O)[C@H](CC(C)C)NC(=O)[C@H](CC(=O)O)NC(=O)[C@H](CO)NC(=O)[C@@H](NC(=O)[C@H](Cc1ccccc1)NC(=O)[C@@H](NC(=O)CNC(=O)[C@H](CCC(=O)O)NC(=O)C(C)(C)NC(=O)[C@@H](N)Cc1ccc(O)cc1)[C@@H](C)O)[C@@H](C)O)[C@@H](C)CC)C(=O)N[C@@H](CC(=O)O)C(=O)N[C@@H](CCCCN)C(=O)N[C@@H](CCCNC(=N)N)C(=O)N[C@@H](C)C(=O)N[C@@H](C)C(=O)N[C@@H](CCC(N)=O)C(=O)N[C@@H](CC(=O)O)C(=O)N[C@@H](Cc1ccccc1)C(=O)N[C@H](C(=O)N[C@@H](CCC(=O)O)C(=O)N[C@@H](Cc1c[nH]c2ccccc12)C(=O)N[C@@H](CC(C)C)C(=O)N[C@@H](CCCCN)C(=O)N[C@@H](C)C(=O)NCC(=O)NCC(=O)N1CCC[C@H]1C(=O)N[C@@H](CO)C(=O)N[C@@H](CO)C(=O)NCC(=O)N[C@@H](C)C(=O)N1CCC[C@H]1C(=O)N1CCC[C@H]1C(=O)N1CCC[C@H]1C(=O)N[C@@H](CO)C(N)=O)[C@@H](C)CC)C(=O)O [SEQ ID NO: 31, Y-Aib-E-G-T-F-T-S-D-L-S-I-Q-K(γE-x53)-DKRAAQDFIEWLKAGGPSSGAPPPS-NH2]
Stability (pH 4.5) [1]: 94.0% | Stability (pH 7.4) [1]: 96.0% | EC50 (human GLP-1 receptor): 6 pM | solubility at 2 h ([3]; pH 4.5): > 1000 µg/mL | solubility at 2 h ([3]; pH 7.4): > 1000 µg/mL

CCCCCCCCCCCCCCCC(=O)N[C@@H](CCC(=O)NCCCC[C@H](NC(=O)[C@H](CCC(N)=O)NC(=O)[C@@H](NC(=O)[C@H](CO)NC(=O)[C@H](CC(C)C)NC(=O)[C@H](CC(=O)O)NC(=O)[C@H](CO)NC(=O)[C@@H](NC(=O)[C@H](Cc1ccccc1)NC(=O)[C@@H](NC(=O)CNC(=O)[C@H](CCC(N)=O)NC(=O)C(C)(C)NC(=O)[C@@H](N)Cc1ccc(O)cc1)[C@@H](C)O)[C@@H](C)O)[C@@H](C)CC)C(=O)N[C@@H](CC(=O)O)C(=O)N[C@@H](CCCCN)C(=O)N[C@@H](CCCNC(=N)N)C(=O)N[C@@H](C)C(=O)N[C@@H](C)C(=O)N[C@@H](CCC(N)=O)C(=O)N[C@@H](CC(=O)O)C(=O)N[C@@H](Cc1ccccc1)C(=O)N[C@H](C(=O)N[C@@H](CCC(=O)O)C(=O)N[C@@H](Cc1c[nH]c2ccccc12)C(=O)N[C@@H](CC(C)C)C(=O)N[C@@H](CCCCN)C(=O)N[C@@H](C)C(=O)NCC(=O)NCC(=O)N1CCC[C@H]1C(=O)N[C@@H](CO)C(=O)N[C@@H](CO)C(=O)NCC(=O)N[C@@H](C)C(=O)N1CCC[C@H]1C(=O)N1CCC[C@H]1C(=O)N1CCC[C@H]1C(=O)N[C@@H](CO)C(N)=O)[C@@H](C)CC)C(=O)O [SEQ ID NO: 28, Y-Aib-Q-G-T-F-T-S-D-L-S-I-Q-K(γE-x53)-DKRAAQDFIEWLKAGGPSSGAPPPS-NH2] (H-Y[Aib]QGTFTSDLSIQK([γGlu-Palmitoyl])DKRAAQDFIEWLKAGGPSSGAPPPS-NH2)
EC50 (human GLP-1 receptor): 3.2 pM
